Source: US20240116985A1, “STAPLED PEPTIDES AND METHODS THEREOF” (priority 2020, published 2024)
Read-outs that look alike come from different tables or passages of the source.

Tests used:
[1] = molecular target: T1, beta-catenin/TCF4 engagement (Homo sapiens, UniProt P35222); experiment: Nano-BRET target engagement assay (B-cat-Halo & TCF4-Luc in HEK293 cells); format: cell-based; settings: read-out: NanoBRET Abs IC50
T1 construct: expressed in transfected cells; host or cells: HEK293
T1 sequence (P35222 1-781): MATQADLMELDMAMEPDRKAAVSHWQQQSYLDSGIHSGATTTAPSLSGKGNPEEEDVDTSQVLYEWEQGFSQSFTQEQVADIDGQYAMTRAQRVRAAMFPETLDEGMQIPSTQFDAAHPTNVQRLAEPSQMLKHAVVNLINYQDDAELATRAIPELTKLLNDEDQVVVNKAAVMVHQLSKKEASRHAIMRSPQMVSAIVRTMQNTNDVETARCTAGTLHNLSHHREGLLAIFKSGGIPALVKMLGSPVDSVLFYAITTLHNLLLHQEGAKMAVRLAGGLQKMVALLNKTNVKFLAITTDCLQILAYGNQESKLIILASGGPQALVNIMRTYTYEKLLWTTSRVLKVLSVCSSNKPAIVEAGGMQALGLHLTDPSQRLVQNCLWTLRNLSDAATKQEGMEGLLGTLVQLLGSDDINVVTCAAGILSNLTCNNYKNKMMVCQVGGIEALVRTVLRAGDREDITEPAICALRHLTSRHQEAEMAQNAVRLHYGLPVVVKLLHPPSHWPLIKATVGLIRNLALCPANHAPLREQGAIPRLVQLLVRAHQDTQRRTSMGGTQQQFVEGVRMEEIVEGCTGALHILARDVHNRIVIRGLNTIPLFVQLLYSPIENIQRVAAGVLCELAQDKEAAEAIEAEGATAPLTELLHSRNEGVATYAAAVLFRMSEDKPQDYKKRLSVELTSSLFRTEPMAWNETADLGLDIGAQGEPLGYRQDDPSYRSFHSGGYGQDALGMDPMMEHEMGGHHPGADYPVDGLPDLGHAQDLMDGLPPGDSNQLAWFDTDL

[2] = molecular target: T2, full-length beta-Catenin (Uniprot ID P35222) (Homo sapiens, UniProt P35222); experiment: Fluorescence polarization IC50 (beta-catenin / 5FAM-TCF4 10-53 competition); format: binding; settings: fluorescence polarization; read-out: beta-Catenin FP IC50
T2 construct: 10 nM full-length beta-Catenin (Uniprot ID P35222)
T2 sequence (P35222 1-781): T1 sequence (P35222 1-781)

Compound	IC50 ([1]; absolute IC50)	IC50 [2]	IC50 [1]
CC(=O)N1CCC[C@]12CC=CCCCC1(CCCC=CCCCOC(=O)N3CC[C@@](C(=O)N[C@@H](Cc4ccccc4C(F)(F)F)C(=O)N[C@@H](Cc4csc5ccccc45)C(=O)N[C@@H](CCCN4CCC(F)(F)CC4)C(N)=O)(C3)NC(=O)[C@H](CC(C)C)NC(=O)[C@H](Cc3ccccc3)NC(=O)[C@H](C)NC(=O)[C@H](C)NC(=O)[C@H](Cc3cccc(C(=O)O)c3)NC(=O)[C@H](CC(=O)O)NC1=O)NC(=O)[C@H](CC(C)(C)C)NC(=O)[C@H](CC(=O)O)NC2=O (stereo partly drawn) [I-1608, Ac-PL3-Asp-Npg-B5-Asp-3COOHF-Ala-Ala-Phe-Leu-PyrS2-2F3MeF-BztA-F2PipNva-NH2]	15100 nM	76 nM	–
CC(=O)N1CCC[C@]12CC=CCCCC1(CCCC=CCCCOC(=O)N3CC[C@@](C(=O)N[C@@H](Cc4ccccc4Cl)C(=O)N[C@@H](Cc4csc5ccccc45)C(=O)N[C@H](C(N)=O)C(C)C)(C3)NC(=O)[C@H](CO)NC(=O)[C@H](Cc3ccccc3)NC(=O)[C@H](C)NC(=O)[C@H](C)NC(=O)[C@H](Cc3cccc(C(=O)O)c3)NC(=O)[C@H](CC(=O)O)NC1=O)NC(=O)[C@H](CC(C)(C)C)NC(=O)[C@H](CC(=O)O)NC2=O (stereo partly drawn) [I-2028, Ac-PL3-Asp-Npg-B5-Asp-3COOHF-Ala-Ala-Phe-Ser-PyrS2-2C1F-BztA-Val-NH2]	–	32 nM	17600 nM
CC(=O)N(CC[C@@H]1NC(=O)[C@H](CC(=O)O)NC(=O)C2(CCCC=CCCCOC(=O)N3CC[C@@](C(=O)N[C@@H](Cc4ccsc4)C(=O)N[C@@H](Cc4csc5ccccc45)C(=O)N[C@@H](CCC(N)=O)C(N)=O)(C3)NC(=O)[C@H](CC(C)C)NC(=O)[C@H](Cc3ccccc3)NC(=O)[C@H](C)NC(=O)[C@H](C)NC1=O)CCCC=CC[C@]1(CCCN1C(C)=O)C(=O)N[C@@H](CC(=O)O)C(=O)N[C@@H](CC(C)(C)C)C(=O)N2)CC(=O)O (stereo partly drawn) [I-1840, Ac-PL3-Asp-Npg-B5-Asp-[Ac]GAbu-Ala-Ala-Phe-Leu-PyrS2-3Thi-BztA-Gln-NH2]	22300 nM	14 nM	–
CC(=O)N1CCC[C@]12CC=CCCCC1(CCCC=CCCCOC(=O)N3CC[C@@](C(=O)N[C@@H](Cc4ccccc4Cl)C(=O)N[C@@H](Cc4csc5ccccc45)C(=O)N[C@@H](CC(C)C)C(N)=O)(C3)NC(=O)[C@H](CC(C)C)NC(=O)[C@H](Cc3ccccc3)NC(=O)[C@H](C)NC(=O)[C@H](CCCCNC(C)C)NC(=O)[C@H](CC(=O)O)NC(=O)[C@H](CC(=O)O)NC1=O)NC(=O)[C@H](CC(C)(C)C)NC(=O)[C@H](CC(=O)O)NC2=O (stereo partly drawn) [I-1277, Ac-PL3-Asp-Npg-B5-Asp-Asp-iPrLys-Ala-Phe-Leu-PyrS2-2C1F-BztA-Leu-NH2]	> 20000 nM	17 nM	–
CC(=O)N1CCC[C@]12CC=CCCCC1(CCCC=CCCCOC(=O)N3CC[C@@](C(=O)N[C@@H](Cc4ccsc4)C(=O)N[C@@H](Cc4csc5ccccc45)C(=O)N[C@@H](CC(C)C)C(N)=O)(C3)NC(=O)[C@H]([C@@H](C)O)NC(=O)[C@H](Cc3ccccc3)NC(=O)[C@H](C)NC(=O)[C@H](CCCCNC(C)C)NC(=O)[C@H](CN(CC(=O)O)CC(F)(F)F)NC(=O)[C@H](CC(=O)O)NC1=O)NC(=O)[C@H](CC(C)(C)C)NC(=O)[C@H](CC(=O)O)NC2=O (stereo partly drawn) [I-1760, Ac-PL3-Asp-Npg-B5-Asp-TfeGA-iPrLys-Ala-Phe-Thr-PyrS2-3Thi-BztA-Leu-NH2]	> 20000 nM	32 nM	–
CC(=O)N1CCC[C@]12CC=CCCCC1(CCCC=CCCCOC(=O)N3CC[C@@](C(=O)N[C@@H](Cc4ccsc4)C(=O)N[C@@H](Cc4csc5ccccc45)C(=O)N[C@@H](CCC(N)=O)C(N)=O)(C3)NC(=O)[C@H](CC(N)=O)NC(=O)[C@H](Cc3ccccc3)NC(=O)[C@H](C)NC(=O)[C@H](C)NC(=O)[C@H](Cc3c(F)c(F)c(F)c(F)c3F)NC(=O)[C@H](CC(=O)O)NC1=O)NC(=O)[C@H](CC(C)(C)C)NC(=O)[C@H](CC(=O)O)NC2=O (stereo partly drawn) [I-1790, Ac-PL3-Asp-Npg-B5-Asp-Pff-Ala-Ala-Phe-Asn-PyrS2-3Thi-BztA-Gln-NH2]	34400 nM	82 nM	–
